Laboratory results as given in ChEMBL document CHEMBL1136267, “Design and synthesis of novel PPARalpha/gamma/delta triple activators using a known PPARalpha/gamma dual activator as structural template” (Bioorg Med Chem Lett, 2003).

How the values were obtained:
[1] = molecular target: T1, Peroxisome proliferator-activated receptor gamma (Homo sapiens, UniProt P37231); experiment: In vitro activation of human peroxisome proliferator activated receptor gamma (PPAR gamma)
T1 sequence (P37231 whole entry): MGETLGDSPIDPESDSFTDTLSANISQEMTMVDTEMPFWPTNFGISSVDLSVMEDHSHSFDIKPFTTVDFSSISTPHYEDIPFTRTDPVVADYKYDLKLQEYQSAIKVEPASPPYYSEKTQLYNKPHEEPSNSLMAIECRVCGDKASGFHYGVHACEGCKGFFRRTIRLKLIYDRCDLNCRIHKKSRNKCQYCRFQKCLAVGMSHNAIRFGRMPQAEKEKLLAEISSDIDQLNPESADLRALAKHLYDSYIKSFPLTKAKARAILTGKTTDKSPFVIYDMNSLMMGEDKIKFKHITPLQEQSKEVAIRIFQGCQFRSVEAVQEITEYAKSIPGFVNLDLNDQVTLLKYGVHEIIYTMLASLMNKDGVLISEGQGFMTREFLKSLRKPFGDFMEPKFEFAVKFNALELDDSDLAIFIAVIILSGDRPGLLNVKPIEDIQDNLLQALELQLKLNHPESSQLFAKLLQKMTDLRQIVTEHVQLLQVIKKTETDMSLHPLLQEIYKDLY

[2] = molecular target: T2, Peroxisome proliferator-activated receptor delta (Homo sapiens, UniProt Q03181); experiment: In vitro activation of human peroxisome proliferator activated receptor delta (PPAR delta)
T2 sequence (Q03181 whole entry): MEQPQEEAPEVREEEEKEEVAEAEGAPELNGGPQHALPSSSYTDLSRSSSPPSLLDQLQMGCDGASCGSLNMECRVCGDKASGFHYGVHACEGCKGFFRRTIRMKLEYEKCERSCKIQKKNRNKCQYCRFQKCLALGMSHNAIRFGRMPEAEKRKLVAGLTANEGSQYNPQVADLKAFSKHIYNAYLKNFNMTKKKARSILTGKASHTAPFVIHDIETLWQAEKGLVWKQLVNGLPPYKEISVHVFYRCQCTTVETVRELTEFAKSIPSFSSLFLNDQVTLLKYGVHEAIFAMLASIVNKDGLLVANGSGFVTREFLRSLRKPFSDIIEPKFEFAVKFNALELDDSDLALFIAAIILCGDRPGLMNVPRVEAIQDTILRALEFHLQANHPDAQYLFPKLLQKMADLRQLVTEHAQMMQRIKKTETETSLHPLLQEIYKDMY

[3] = molecular target: T3, Peroxisome proliferator-activated receptor alpha (Homo sapiens, UniProt Q07869)
T3 sequence (Q07869 whole entry): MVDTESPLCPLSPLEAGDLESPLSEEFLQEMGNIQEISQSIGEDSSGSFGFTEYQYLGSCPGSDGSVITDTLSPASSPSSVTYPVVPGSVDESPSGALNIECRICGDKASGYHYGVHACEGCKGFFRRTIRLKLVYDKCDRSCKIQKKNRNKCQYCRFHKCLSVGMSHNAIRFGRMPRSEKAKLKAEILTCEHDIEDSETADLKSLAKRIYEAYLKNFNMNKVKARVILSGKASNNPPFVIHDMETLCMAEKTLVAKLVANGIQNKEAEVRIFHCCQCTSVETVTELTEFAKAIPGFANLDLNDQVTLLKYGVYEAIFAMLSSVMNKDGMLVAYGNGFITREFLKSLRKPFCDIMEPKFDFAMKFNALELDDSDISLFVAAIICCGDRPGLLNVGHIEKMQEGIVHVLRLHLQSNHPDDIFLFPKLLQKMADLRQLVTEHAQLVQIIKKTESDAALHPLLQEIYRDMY
Description: In vitro activation of human peroxisome proliferator activated receptor alpha

Row | EC50 [1] [nM] | EC50 [2] [nM] | EC50 [3] [nM] | Compound
1 | 1500 | 900 | 1100 | CCO[C@@H](Cc1ccc(OC/C=C(\c2ccccc2)c2ccc(Br)cc2)cc1)C(=O)O
2 | 2200 | 700 | 2200 | CCO[C@@H](Cc1ccc(OCC=C(c2ccc(OC)cc2)c2ccc(OC)cc2)cc1)C(=O)O
3 | 4300 | 3400 | 2200 | CCO[C@@H](Cc1ccc(OC/C=C(/c2ccccc2)c2ccc(Br)cc2)cc1)C(=O)O
4 | 8500 | 8300 | 5300 | CCO[C@@H](Cc1ccc(OC/C=C(\c2ccccc2)c2ccc(F)cc2)cc1)C(=O)O
5 | 3100 | 2000 | 700 | CCO[C@@H](Cc1ccc(OCC=C(c2ccc(C)cc2)c2ccc(C)cc2)cc1)C(=O)O
6 | 4000 | 3400 | 3200 | CCO[C@@H](Cc1ccc(OC/C=C(/c2ccccc2)c2ccc(F)cc2)cc1)C(=O)O
7 | 2900 | 1000 | 2000 | CCO[C@@H](Cc1ccc(OCC=C(c2ccc(-c3ccco3)cc2)c2ccc(-c3ccco3)cc2)cc1)C(=O)O
8 | 3300 |  | 4500 | CCO[C@@H](Cc1ccc(OCCN(c2ccccc2)c2ccccc2)cc1)C(=O)O
9 | 2700 | 5700 | 6400 | CCO[C@@H](Cc1ccc(OCC=C(c2ccccc2)c2ccccc2)cc1)C(=O)O

Row | Compound | EC50 [1] [nM] | EC50 [2] [nM] | EC50 [3] [nM]
10 | CCO[C@@H](Cc1ccc(OC/C=C(\c2ccccc2)c2ccc(-c3ccco3)cc2)cc1)C(=O)O | 800 | 600 | 300
11 | CCO[C@@H](Cc1ccc(OCC=C(c2ccc(Br)cc2)c2ccc(Br)cc2)cc1)C(=O)O | 900 | 400 | 300
12 | CCO[C@@H](Cc1ccc(OCC=C(c2ccc(-c3ccccc3)cc2)c2ccc(-c3ccccc3)cc2)cc1)C(=O)O | 300 | 500 | 1100
13 | CCO[C@@H](Cc1ccc(OC/C=C(\c2ccccc2)c2ccc(-c3ccccc3)cc2)cc1)C(=O)O | 600 | 2200 | 900
14 | CCO[C@@H](Cc1ccc(OC/C=C(/c2ccccc2)c2ccc(-c3ccccc3)cc2)cc1)C(=O)O | 1700 | 2200 | 700
15 | CCO[C@@H](Cc1ccc(OC/C=C(/c2ccccc2)c2ccc(-c3ccco3)cc2)cc1)C(=O)O | 2000 | 2000 | 400
